Where “and” joins values, the source holds several entries; their conditions need not be identical. Equal values may be shown once. Numbers after ± are expanded uncertainties.
Legend:
[1] = refractive index (Na D-line) (dimensionless); xn = mol fraction of the nth substance listed; settings: 100 kPa, Liquid, Standard Abbe refractometry, x2 = 0
[2] = xn = mol fraction of the nth substance listed; settings: 100 kPa, Liquid, x2 = 0; for speed of sound: Frequency=3 MHz, Single path-length method; for mass density: Vibrating tube method
[3] = refractive index (Na D-line) (dimensionless); settings: 100 kPa, Liquid, Standard Abbe refractometry
[4] = 100 kPa, Liquid; for speed of sound: Frequency=3 MHz, Single path-length method; for mass density: Vibrating tube method

`C1CCCCC1` [cyclohexane] + CC(=O)CC(C)C gave a refractive index ([1]; 293.15 K) of 1.426 ± 0.005, a refractive index ([1]; 303.15 K) of 1.421 ± 0.005 and a refractive index ([1]; 313.15 K) of 1.415 ± 0.005. The speed of sound ([2]; 293.15 K) was 1279.5 ± 1.4 m/s, the mass density ([2]; 293.15 K) was 779 ± 3 kg/m3 and the speed of sound ([2]; 303.15 K) was 1230.1 ± 1.4 m/s. The mass density ([2]; 303.15 K) was 769 ± 3 kg/m3, the speed of sound ([2]; 313.15 K) was 1181.8 ± 1.4 m/s and the mass density ([2]; 313.15 K) was 760 ± 3 kg/m3.

Work on `CC(=O)CC(C)C` [4-methylpentan-2-one] yielded a refractive index ([3]; 293.15 K) of 1.396 ± 0.005, a refractive index ([3]; 303.15 K) of 1.391 ± 0.005 and a refractive index ([3]; 313.15 K) of 1.387 ± 0.005. For the same compound, the speed of sound ([4]; 293.15 K) was 1212.3 ± 1.6 m/s, the mass density ([4]; 293.15 K) was 801 ± 3 kg/m3 and 800 ± 3 kg/m3 and the speed of sound ([4]; 303.15 K) was 1171.4 ± 1.6 m/s. The mass density ([4]; 303.15 K) was 792 ± 3 kg/m3, the speed of sound ([4]; 313.15 K) was 1131.4 ± 1.6 m/s and the mass density ([4]; 313.15 K) was 782 ± 3 kg/m3.

In the case of `CC(C)=O` [acetone] + CC(=O)CC(C)C, the refractive index ([1]; 293.15 K) is reported as 1.359 ± 0.005, the refractive index ([1]; 303.15 K) is reported as 1.353 ± 0.005 and the refractive index ([1]; 313.15 K) is reported as 1.348 ± 0.005. For the same compound, the speed of sound ([2]; 293.15 K) was 1184.3 ± 1.4 m/s, the mass density ([2]; 293.15 K) was 790 ± 3 kg/m3 and the speed of sound ([2]; 303.15 K) was 1139.4 ± 1.4 m/s. It also gave a mass density ([2]; 303.15 K) of 779 ± 3 kg/m3, a speed of sound ([2]; 313.15 K) of 1094.6 ± 1.4 m/s and a mass density ([2]; 313.15 K) of 767 ± 3 kg/m3.

Work on `CC#N` [acetonitrile] + CC(=O)CC(C)C yielded a refractive index ([1]; 293.15 K) of 1.344 ± 0.005, a refractive index ([1]; 303.15 K) of 1.339 ± 0.005 and a refractive index ([1]; 313.15 K) of 1.334 ± 0.005. The speed of sound ([2]; 293.15 K) was 1299.7 ± 1.3 m/s, the mass density ([2]; 293.15 K) was 782 ± 3 kg/m3 and the speed of sound ([2]; 303.15 K) was 1258.8 ± 1.3 m/s. The mass density ([2]; 303.15 K) was 771 ± 3 kg/m3, the speed of sound ([2]; 313.15 K) was 1218.4 ± 1.3 m/s and the mass density ([2]; 313.15 K) was 760 ± 3 kg/m3.

Compound `C1CCCCC1` [cyclohexane] has a refractive index ([3]; 293.15 K) of 1.426 ± 0.005, a refractive index ([3]; 303.15 K) of 1.421 ± 0.005 and a refractive index ([3]; 313.15 K) of 1.415 ± 0.005. The speed of sound ([4]; 293.15 K) was 1279.5 ± 1.4 m/s, the mass density ([4]; 293.15 K) was 779 ± 3 kg/m3 and 778 ± 3 kg/m3 and the speed of sound ([4]; 303.15 K) was 1230.1 ± 1.4 m/s. For the same compound, the mass density ([4]; 303.15 K) was 769 ± 3 kg/m3, the speed of sound ([4]; 313.15 K) was 1181.8 ± 1.4 m/s and the mass density ([4]; 313.15 K) was 760 ± 3 kg/m3 and 759 ± 3 kg/m3.

In the case of `C[S+](C)[O-]` [dimethyl sulfoxide], the refractive index ([3]; 293.15 K) is reported as 1.48 ± 0.005 and 1.479 ± 0.005, the refractive index ([3]; 303.15 K) is reported as 1.475 ± 0.005 and the refractive index ([3]; 313.15 K) is reported as 1.47 ± 0.005. The speed of sound ([4]; 293.15 K) was 1504.7 ± 1.4 m/s, the mass density ([4]; 293.15 K) was 1100 ± 3 kg/m3 and the speed of sound ([4]; 303.15 K) was 1471 ± 1.4 m/s. It also gave a mass density ([4]; 303.15 K) of 1090 ± 3 kg/m3, a speed of sound ([4]; 313.15 K) of 1437.4 ± 1.4 m/s and a mass density ([4]; 313.15 K) of 1080 ± 3 kg/m3.

With `CC#N` [acetonitrile] the refractive index ([3]; 293.15 K) was 1.344 ± 0.005, the refractive index ([3]; 303.15 K) was 1.339 ± 0.005 and the refractive index ([3]; 313.15 K) was 1.334 ± 0.005. It also gave a speed of sound ([4]; 293.15 K) of 1299.7 ± 1.3 m/s, a mass density ([4]; 293.15 K) of 782 ± 3 kg/m3 and a speed of sound ([4]; 303.15 K) of 1258.8 ± 1.3 m/s. For the same compound, the mass density ([4]; 303.15 K) was 771 ± 3 kg/m3, the speed of sound ([4]; 313.15 K) was 1218.4 ± 1.3 m/s and the mass density ([4]; 313.15 K) was 760 ± 3 kg/m3.

With `CC(C)=O` [acetone] the refractive index ([3]; 293.15 K) was 1.359 ± 0.005, the refractive index ([3]; 303.15 K) was 1.353 ± 0.005 and the refractive index ([3]; 313.15 K) was 1.348 ± 0.005. The speed of sound ([4]; 293.15 K) was 1184.3 ± 1.4 m/s, the mass density ([4]; 293.15 K) was 790 ± 3 kg/m3 and the speed of sound ([4]; 303.15 K) was 1139.4 ± 1.4 m/s. It also gave a mass density ([4]; 303.15 K) of 779 ± 3 kg/m3, a speed of sound ([4]; 313.15 K) of 1094.6 ± 1.4 m/s and a mass density ([4]; 313.15 K) of 767 ± 3 kg/m3.

In the case of `C[S+](C)[O-]` [dimethyl sulfoxide] + CC(=O)CC(C)C, the refractive index ([1]; 293.15 K) is reported as 1.48 ± 0.005, the refractive index ([1]; 303.15 K) is reported as 1.475 ± 0.005 and the refractive index ([1]; 313.15 K) is reported as 1.47 ± 0.005. The speed of sound ([2]; 293.15 K) was 1504.7 ± 1.4 m/s, the mass density ([2]; 293.15 K) was 1100 ± 3 kg/m3 and the speed of sound ([2]; 303.15 K) was 1471 ± 1.4 m/s. It also gave a mass density ([2]; 303.15 K) of 1090 ± 3 kg/m3, a speed of sound ([2]; 313.15 K) of 1437.4 ± 1.4 m/s and a mass density ([2]; 313.15 K) of 1080 ± 3 kg/m3.
